Experimental data published in patent US8541588B2, “Sulfonamide derivatives” (Pfizer Limited, priority 2009, dated 2013).

Biological target: T1, Nav1.7 (or SCN9A) channel; HEK cells stably transfected with hSCN9A (Homo sapiens, UniProt Q15858)
T1 construct: expressed in transfected cells
Experiment: Nav1.7 block, PatchXpress 7000 automated whole-cell voltage clamp, estimated IC50 (EIC50)
Type: cell-based
Details: estimated IC50; hSCN9A HEK cells, PatchXpress platform; Examples 283-814

T1 sequence (Q15858 whole entry): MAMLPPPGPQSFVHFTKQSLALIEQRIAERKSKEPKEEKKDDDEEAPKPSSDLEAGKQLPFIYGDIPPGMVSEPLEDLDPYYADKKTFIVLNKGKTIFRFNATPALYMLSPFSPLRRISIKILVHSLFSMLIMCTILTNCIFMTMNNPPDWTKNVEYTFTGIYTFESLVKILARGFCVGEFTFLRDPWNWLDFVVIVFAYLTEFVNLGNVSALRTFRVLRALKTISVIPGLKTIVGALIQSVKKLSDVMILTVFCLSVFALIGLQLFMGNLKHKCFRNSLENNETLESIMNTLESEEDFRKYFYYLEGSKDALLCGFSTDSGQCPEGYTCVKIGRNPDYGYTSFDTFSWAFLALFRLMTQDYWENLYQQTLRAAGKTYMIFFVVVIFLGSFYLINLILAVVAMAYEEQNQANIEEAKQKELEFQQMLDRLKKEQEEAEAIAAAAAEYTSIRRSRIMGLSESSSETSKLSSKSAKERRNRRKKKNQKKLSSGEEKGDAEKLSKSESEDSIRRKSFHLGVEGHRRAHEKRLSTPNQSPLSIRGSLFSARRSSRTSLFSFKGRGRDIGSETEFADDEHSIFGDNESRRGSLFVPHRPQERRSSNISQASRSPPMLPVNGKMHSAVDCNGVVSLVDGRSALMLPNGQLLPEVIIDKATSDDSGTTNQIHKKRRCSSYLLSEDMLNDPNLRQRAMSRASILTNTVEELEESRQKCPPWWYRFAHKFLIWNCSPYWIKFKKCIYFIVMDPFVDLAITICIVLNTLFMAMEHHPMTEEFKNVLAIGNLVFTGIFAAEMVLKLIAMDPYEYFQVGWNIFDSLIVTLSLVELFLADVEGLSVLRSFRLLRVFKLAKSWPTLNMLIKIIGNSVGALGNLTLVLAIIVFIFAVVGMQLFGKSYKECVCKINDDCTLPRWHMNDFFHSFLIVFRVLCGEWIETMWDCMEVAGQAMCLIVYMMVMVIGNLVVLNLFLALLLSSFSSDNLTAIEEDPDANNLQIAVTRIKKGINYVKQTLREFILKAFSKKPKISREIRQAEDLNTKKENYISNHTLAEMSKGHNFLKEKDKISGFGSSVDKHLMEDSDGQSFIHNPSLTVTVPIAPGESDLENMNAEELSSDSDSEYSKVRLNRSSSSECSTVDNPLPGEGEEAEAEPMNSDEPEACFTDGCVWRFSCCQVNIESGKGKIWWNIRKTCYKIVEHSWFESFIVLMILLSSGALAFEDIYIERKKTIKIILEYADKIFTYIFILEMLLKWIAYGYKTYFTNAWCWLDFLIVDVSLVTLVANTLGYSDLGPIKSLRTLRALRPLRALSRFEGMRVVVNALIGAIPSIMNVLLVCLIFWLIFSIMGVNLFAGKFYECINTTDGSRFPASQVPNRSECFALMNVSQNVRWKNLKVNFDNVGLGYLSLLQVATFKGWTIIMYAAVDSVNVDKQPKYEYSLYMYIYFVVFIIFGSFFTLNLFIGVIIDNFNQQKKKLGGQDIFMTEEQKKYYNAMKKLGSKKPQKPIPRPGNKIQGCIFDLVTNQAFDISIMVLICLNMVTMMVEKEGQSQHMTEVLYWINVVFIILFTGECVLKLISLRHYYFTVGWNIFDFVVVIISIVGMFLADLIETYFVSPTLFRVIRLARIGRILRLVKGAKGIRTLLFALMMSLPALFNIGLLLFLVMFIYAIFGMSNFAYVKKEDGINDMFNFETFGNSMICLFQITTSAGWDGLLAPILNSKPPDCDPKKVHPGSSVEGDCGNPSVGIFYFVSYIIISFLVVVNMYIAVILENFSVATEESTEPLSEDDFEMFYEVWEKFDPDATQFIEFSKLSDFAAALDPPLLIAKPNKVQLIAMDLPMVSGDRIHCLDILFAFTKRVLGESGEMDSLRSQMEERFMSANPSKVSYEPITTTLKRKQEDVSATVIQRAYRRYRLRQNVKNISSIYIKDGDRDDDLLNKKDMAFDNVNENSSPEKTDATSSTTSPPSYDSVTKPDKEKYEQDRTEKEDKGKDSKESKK

| Compound | IC50 [µM] |
| --- | --- |
| O=S(=O)(Nc1ncns1)c1cc(Cl)c(Oc2ccc(OC(F)F)cc2C2CCNCC2)cc1F [Example 412, 5-chloro-4-[4-(difluoromethoxy)-2-piperidin-4-ylphenoxy]-2-fluoro-N-1,2,4-thiadiazol-5-ylbenzenesulfonamide] | 0.0025 |
| Cn1nccc1-c1cc(Cl)ccc1Oc1ccc(S(=O)(=O)Nc2ncsc2Cl)cc1C#N [Example 413, 4-[4-chloro-2-(1-methyl-1H-pyrazol-5-yl)phenoxy]-N-(5-chloro-1,3-thiazol-4-yl)-3-cyanobenzenesulfonamide] | 12 |
| Cn1cc(-c2cc(Cl)ccc2Oc2ccc(S(=O)(=O)Nc3cscn3)cc2C#N)cn1 [Example 414, 4-[4-chloro-2-(1-methyl-1H-pyrazol-4-yl)phenoxy]-3-cyano-N-1,3-thiazol-4-ylbenzenesulfonamide] | 1 |
| N#Cc1cc(S(=O)(=O)Nc2cscn2)ccc1Oc1ccc(F)cc1-c1cnn(CC(F)(F)F)c1 [Example 415, 4-{4-fluoro-2-[1-(2,2,2-trifluoroethyl)-1H-pyrazol-4-yl]phenoxy}-3-cyano-N-1,3-thiazol-4-ylbenzenesulfonamide] | >1 |
| N#Cc1cc(S(=O)(=O)Nc2nccs2)ccc1Oc1ccc(Cl)cc1-n1cnnn1 [Example 416, 4-(4-chloro-2-(1H-tetrazol-1-yl)phenoxy)-3-cyano-N-(thiazol-2-yl)benzenesulfonamide] | 1.6 |
| N#Cc1cc(S(=O)(=O)Nc2cscn2)ccc1Oc1ccc(Cl)c(Cn2ccnc2)c1 [Example 418, 4-[4-chloro-3-(1H-imidazol-1-ylmethyl)phenoxy]-3-cyano-N-1,3-thiazol-4-ylbenzenesulfonamide] | 2.3 |
| CC(C)(C)n1cc(Cc2cccc(Oc3ccc(S(=O)(=O)Nc4cscn4)cc3C#N)c2)cn1 [Example 419, 4-{3-[(1-tert-butyl-1H-pyrazol-4-yl)methyl]phenoxy}-3-cyano-N-1,3-thiazol-4-ylbenzenesulfonamide] | 2.1 |
| N#Cc1cc(S(=O)(=O)Nc2ncccc2F)ccc1Oc1ccccc1-c1ccccc1 [Example 420, 4-(biphenyl-2-yloxy)-3-cyano-N-(3-fluoropyridin-2-yl)benzenesulfonamide] | 24 |
| N#Cc1cccc(NS(=O)(=O)c2ccc(Oc3ccccc3-c3ccccc3)c(C#N)c2)n1 [Example 421, 4-(biphenyl-2-yloxy)-3-cyano-N-(6-cyanopyridin-2-yl)benzenesulfonamide] | 12 |
| N#Cc1ccnc(NS(=O)(=O)c2ccc(Oc3ccccc3-c3ccccc3)c(C#N)c2)c1 [Example 422, 4-(biphenyl-2-yloxy)-3-cyano-N-(4-cyanopyridin-2-yl)benzenesulfonamide] | >1 |
| Cc1ccc(NS(=O)(=O)c2ccc(Oc3ccccc3-c3ccccc3)c(C#N)c2)nc1 [Example 424, 4-(biphenyl-2-yloxy)-3-cyano-N-(5-methylpyridin-2-yl)benzenesulfonamide] | >3 |
| Cc1ccnc(NS(=O)(=O)c2ccc(Oc3ccccc3-c3ccccc3)c(C#N)c2)n1 [Example 425, 4-(biphenyl-2-yloxy)-3-cyano-N-(4-methylpyrimidin-2-yl)benzenesulfonamide] | 11 |
| N#Cc1cc(S(=O)(=O)Nc2cnc(Cl)nc2)ccc1Oc1ccccc1-c1ccccc1 [Example 426, 4-(biphenyl-2-yloxy)-N-(2-chloropyrimidin-5-yl)-3-cyanobenzenesulfonamide] | 36 |
| N#Cc1cc(S(=O)(=O)Nc2ncc(F)cn2)ccc1Oc1ccccc1-c1ccccc1 [Example 427, 4-(biphenyl-2-yloxy)-3-cyano-N-(5-fluoropyrimidin-2-yl)benzenesulfonamide] | 4.3 |
| Cc1cncnc1NS(=O)(=O)c1ccc(Oc2ccccc2-c2ccccc2)c(C#N)c1 [Example 428, 4-(biphenyl-2-yloxy)-3-cyano-N-(5-methylpyrimidin-4-yl)benzenesulfonamide] | >10 |
| Cc1cnc(NS(=O)(=O)c2ccc(Oc3ccccc3-c3ccccc3)c(C#N)c2)nc1 [Example 429, 4-(biphenyl-2-yloxy)-3-cyano-N-(5-methylpyrimidin-2-yl)benzenesulfonamide] | >10 |
